Test results from PMC2948233 (Organic & biomolecular chemistry, 2010).

Biological target: T1, phosphopantetheinyl transferase Sfp (Bacillus subtilis, UniProt P39135)
T1 sequence (P39135 1-224): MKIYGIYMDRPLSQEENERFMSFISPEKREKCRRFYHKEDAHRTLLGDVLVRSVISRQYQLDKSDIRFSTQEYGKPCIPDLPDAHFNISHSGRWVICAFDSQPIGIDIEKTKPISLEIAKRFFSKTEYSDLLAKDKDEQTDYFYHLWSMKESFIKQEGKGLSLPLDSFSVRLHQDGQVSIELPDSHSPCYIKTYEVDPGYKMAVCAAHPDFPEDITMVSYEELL
Experiment: FRET-quench phosphopantetheinyl transferase assay
Format: biochemical

SMILES | IC50
N=C1Sc2ccccc2C2=NCCCN12 [PD 404,182] | 3.2 µM
Clc1ccc(C(c2ccc(Cl)cc2)n2cc[n+](CC(OCc3ccc(Cl)cc3Cl)c3ccc(Cl)cc3Cl)c2)cc1 (centres unmarked) [calmidazolium chloride] | 20 µM
